# Reference: US20240376099A1, “COMPOUNDS AND COMPOSITIONS AS INHIBITORS OF ENDOSOMAL TOLL-LIKE RECEPTORS” (Novartis AG, priority 2016, published 2024)
# Biological target: T1, TLR9 (Homo sapiens, UniProt Q9NR96)
# T1 construct: Fresh blood was collected from normal human donors; endogenous in cells; host or cells: human PBMCs from fresh donor blood
# T1 sequence (Q9NR96 26-1032): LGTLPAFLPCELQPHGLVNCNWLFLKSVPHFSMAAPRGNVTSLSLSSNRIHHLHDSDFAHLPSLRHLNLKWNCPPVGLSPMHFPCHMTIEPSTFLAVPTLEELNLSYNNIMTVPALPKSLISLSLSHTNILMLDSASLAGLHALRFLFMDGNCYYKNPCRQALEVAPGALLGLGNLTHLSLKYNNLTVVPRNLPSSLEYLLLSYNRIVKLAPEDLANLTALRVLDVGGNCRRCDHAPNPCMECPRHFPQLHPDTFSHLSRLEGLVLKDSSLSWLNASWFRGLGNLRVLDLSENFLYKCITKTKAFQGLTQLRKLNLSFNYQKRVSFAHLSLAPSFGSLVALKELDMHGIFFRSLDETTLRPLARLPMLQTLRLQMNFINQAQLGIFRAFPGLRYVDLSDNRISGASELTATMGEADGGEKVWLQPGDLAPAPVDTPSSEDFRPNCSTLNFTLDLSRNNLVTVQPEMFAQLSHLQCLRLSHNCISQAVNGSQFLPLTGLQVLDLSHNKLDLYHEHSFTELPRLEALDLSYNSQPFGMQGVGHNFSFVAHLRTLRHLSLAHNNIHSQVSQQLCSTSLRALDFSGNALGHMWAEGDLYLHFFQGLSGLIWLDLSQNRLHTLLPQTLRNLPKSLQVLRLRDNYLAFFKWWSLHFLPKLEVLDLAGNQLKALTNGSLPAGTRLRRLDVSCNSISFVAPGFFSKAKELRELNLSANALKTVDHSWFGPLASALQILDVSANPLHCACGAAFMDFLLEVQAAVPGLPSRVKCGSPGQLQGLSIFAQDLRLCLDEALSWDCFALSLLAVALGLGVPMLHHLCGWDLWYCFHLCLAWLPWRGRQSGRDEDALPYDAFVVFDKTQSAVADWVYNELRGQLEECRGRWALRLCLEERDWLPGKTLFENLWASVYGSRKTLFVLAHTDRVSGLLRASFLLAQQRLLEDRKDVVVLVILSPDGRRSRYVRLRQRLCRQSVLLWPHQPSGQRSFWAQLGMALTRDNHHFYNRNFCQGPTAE
# Test: huPBMC TLR9 Antagonist IFNα Assay
# Type: cell-based
# Conditions: human PBMCs stimulated with ODN2216 0.3 μM, 14-16 hrs; IFNα2b AlphaLISA read-out
# Procedure: Compounds were generally serially diluted (1/3) in DMSO and plated on sterile 384 well tissue culture plates and stored until ready for use. Each ten-point dilution was typically plated in triplicate in parallel rows.
# Fresh blood was collected from normal human donors underwritten informed consent in heparinized syringes on the morning of the assay. The blood was diluted in RPMI-1640 medium and the white blood cells were separated from red blood cells by centrifugation (800 g 15′ 0 acceleration, 0 brake) on a Ficoll cushion. Peripheral blood mononuclear cells (PBMCs) were separated from platelets by a series of low-speed centrifugations (1000RPM 10′) in PBS+5% HI—FBS and 1 mM EDTA. Purified PBMCs were re-suspended in assay medium (RPMI-1640 w Glutamax (Invitrogen) supplemented with 5% HI—FBS, 10 mM HEPES, 50 uM β-mercaptoethanol, and 100 mG/L penicillin/streptomycin cocktail). Viable PBMCs were counted on a hemacytometer and kept on ice until ready for plating.
# A 4× concentration (4 ug/ml or 40 ug/ml for TLR8 or TLR7 assays, respectively) of the TLR7/8 agonist ssRNA40 (IDT) was complexed with 10% DOTAP (Roche) in assay medium for 30 min prior to addition to the PBMC suspension (5 million cells/ml). After addition, the final concentration of ssRNA40 in the TLR7/8 stimulated PBMC suspension was 1 μg/ml for TLR8 assay, and 10 μg/mL for the TLR7 assay. The final DOTAP concentration was 2.5%. Diluted PBMCs (5 million cells/ml) were treated with 4×TLR9 agonist ODN2216 (Invivogen). Final concentration of ODN2216 in TLR9 stimulated PBMC suspension was 0.3 μM.
# Agonist stimulated PBMCs were plated on the compound treated 384 well plates at 150,000 cells/well. Un-stimulated PBMCs were plated as controls on each plate. Plating volume was 40 μL per well. DMSO concentration in each well was 0.25%.
# A separate plate, without compounds, with titrations of ssRNA40 and ODN2216 was included in every assay to measure agonist response of each donor's PBMC prep. Assay plates were placed in a tissue culture incubator (37° C., 5% CO2) for 14-16 hrs. After this incubation, the plates were centrifuged and stored at −20° C. until they were assayed.
# IL-6 TR-FRET Assay for TLR8 activity: • 1) Cisbio Human IL-6 kit, 20,000 tests (62TNFPEC), and GNF High-Base TC 384 well plates (cat #789163G) were used; • 2) the Anti-TIL-6 Cryptate conjugate and the Anti-IL-6 XL665 conjugate were diluted 1:20 in Reconstitution Buffer; • 3) a 1:1 mixture of 3 μl/well Anti-IL-6 Cryptate conjugate and 3 μl/well Anti-IL-6 XL665 conjugate was prepared; • 4) 6 μl/well HTRF dilution mastermix was added to 6 μl of transferred supernatant samples in proxiplates; • 5) The plates were incubated for 3 hrs at rt in the dark; and • 6) the levels of IL-6 production was measured using an Envision plate reader (665 nm (emmission)/590 nm (excitation)) with HTRF settings and ratiometric read-out: (XL665 emission/Eu Cryptate emission)×10,000. IFNα2b AlphaLISA Assay for TLR7 or TLR9 activity After thawing the assay plates, 6 μL of supernatant samples were transferred to a low-volume AlphaPlate 384SW (Perkin-Elmer). The concentration of IFNα in supernatants was measured using the IFNα2b AlphaLISA Assay (Perkin-Elmer: AL297F). 3 μL of IFNα acceptor beads/biotinylated antibody solution was added first, using laboratory automation. After an hour incubation, […] of streptavidin […] bead solution was added. The plates containing this mixture were incubated in the dark for an hour and read on an appropriate plate reader at reading parameters set by the manufacturer. (Envision, EnSpire: Perkin-Elmer).
row,Structure (SMILES),IC50 [µM]
1,"Cc1c2c(nn1CC13CCC(N)(CC1)CC3)CCN(c1nc(N)nc3c1cnn3C)C2 [compound 14, 4-(2-((4-aminobicyclo[2.2.2]octan-1-yl)methyl)-3-methyl-6,7-dihydro-2H-pyrazolo[4,3-c]pyridin-5(4H)-yl)-1-methyl-1H-pyrazolo[3,4-d]pyrimidin-6-amine]",> 9.09
2,"CNCC(=O)NC12CCC(Cn3nc(C)c4c3CCN(c3cc(C)nc5c3cnn5C)C4)(CC1)CC2 [compound 121, N-(4-((5-(1,6-dimethyl-1H-pyrazolo[3,4-b]pyridin-4-yl)-3-methyl-4,5,6,7-tetrahydro-1H-pyrazolo[4,3-c]pyridin-1-yl)methyl)bicyclo[2.2.2]octan-1-yl)-2-(methylamino)acetamide]",1.44
3,"Cc1cc(N2CCc3c(c(C(F)(F)F)nn3CC34CCC(N)(CC3)CC4)C2)c2cnn(C)c2n1 [compound 45, 4-((5-(1,6-dimethyl-1H-pyrazolo[3,4-b]pyridin-4-yl)-3-(trifluoromethyl)-4,5,6,7-tetrahydro-1H-pyrazolo[4,3-c]pyridin-1-yl)methyl)bicyclo[2.2.2]octan-1-amine]",2.06
4,"CCN(C)CC(=O)NC12CCC(Cn3nc(C)c4c3CCN(c3cc(C)nc5c3cnn5C)C4)(CC1)CC2 [compound 132, N-(4-((5-(1,6-dimethyl-1H-pyrazolo[3,4-b]pyridin-4-yl)-3-methyl-4,5,6,7-tetrahydro-1H-pyrazolo[4,3-c]pyridin-1-yl)methyl)bicyclo[2.2.2]octan-1-yl)-2-(ethyl(methyl)amino)acetamide]",0.26
5,"Cc1cc(N2CCc3c(c(C)nn3CC34CCC(NC(=O)CN5CCCC5)(CC3)CC4)C2)c2cnn(C)c2n1 [compound 100, N-(4-((5-(1,6-dimethyl-1H-pyrazolo[3,4-b]pyridin-4-yl)-3-methyl-4,5,6,7-tetrahydro-1H-pyrazolo[4,3-c]pyridin-1-yl)methyl)bicyclo[2.2.2]octan-1-yl)-2-(pyrrolidin-1-yl)acetamide]",1.36
6,"Cc1cc(N2CCc3c(c(C)nn3CC34CCC(NC(=O)OC(C)(C)C)(CC3)CC4)C2)c2ccncc2n1 [Compound No. 147, tert-butyl (4-((3-methyl-5-(2-methyl-1,7-naphthyridin-4-yl)-4,5,6,7-tetrahydro-1H-pyrazolo[4,3-c]pyridin-1-yl)methyl)bicyclo[2.2.2]octan-1-yl)carbamate]",6.24
7,"CCn1ncc2c(N3CCc4c(c(C)nn4CC45CCC(NC(=O)[C@@H]6COCCN6)(CC4)CC5)C3)cc(C)nc21 [compound 141, (S)-N-(4-((5-(1-ethyl-6-methyl-1H-pyrazolo[3,4-b]pyridin-4-yl)-3-methyl-4,5,6,7-tetrahydro-1H-pyrazolo[4,3-c]pyridin-1-yl)methyl)bicyclo[2.2.2]octan-1-yl)morpholine-3-carboxamide]",5.17
8,"CCNCCC(=O)NC12CCC(Cn3nc(C)c4c3CCN(c3cc(C)nc5c3cnn5C)C4)(CC1)CC2 [compound 126, N-(4-((5-(1,6-dimethyl-1H-pyrazolo[3,4-b]pyridin-4-yl)-3-methyl-4,5,6,7-tetrahydro-1H-pyrazolo[4,3-c]pyridin-1-yl)methyl)bicyclo[2.2.2]octan-1-yl)-3-(ethylamino)propanamide]",9.53
9,"Cn1ncc2c(N3CCc4nn(CC56CCC(N)(CC5)CC6)cc4C3)nc(N)nc21 [compound 12, 4-(2-((4-aminobicyclo[2.2.2]octan-1-yl)methyl)-6,7-dihydro-2H-pyrazolo[4,3-c]pyridin-5(4H)-yl)-1-methyl-1H-pyrazolo[3,4-d]pyrimidin-6-amine]",> 4.96
10,"Cc1nc(N2CCc3c(c(C)nn3CC34CCC(NC(=O)[C@@H]5CNCCO5)(CC3)CC4)C2)c2c(n1)c(C)nn2C [compound 34, (S)-N-(4-((3-methyl-5-(1,3,5-trimethyl-1H-pyrazolo[4,3-d]pyrimidin-7-yl)-4,5,6,7-tetrahydro-1H-pyrazolo[4,3-c]pyridin-1-yl)methyl)bicyclo[2.2.2]octan-1-yl)morpholine-2-carboxamide]",5.7
11,"COCCNC12CCC(Cn3nc(C)c4c3CCN(c3nc(C)nc5c(C)nn(C)c35)C4)(CC1)CC2 [compound 18, N-(2-methoxyethyl)-4-((3-methyl-5-(1,3,5-trimethyl-1H-pyrazolo[4,3-d]pyrimidin-7-yl)-4,5,6,7-tetrahydro-1H-pyrazolo[4,3-c]pyridin-1-yl)methyl)bicyclo[2.2.2]octan-1-amine]",> 10
12,"Cc1cc(N2CCc3c(c(C)nn3CC34CCC(NC(=O)CCN(C)C)(CC3)CC4)C2)c2cnn(C)c2n1 [compound 105, N-(4-((5-(1,6-dimethyl-1H-pyrazolo[3,4-b]pyridin-4-yl)-3-methyl-4,5,6,7-tetrahydro-1H-pyrazolo[4,3-c]pyridin-1-yl)methyl)bicyclo[2.2.2]octan-1-yl)-3-(dimethylamino)propanamide]",1.63
13,"Cc1nc(N2CCc3c(c(C)nn3CC34CCC(NC(=O)[C@H]5CNCCO5)(CC3)CC4)C2)c2c(n1)c(C)nn2C [compound 36, (R)-N-(4-((3-methyl-5-(1,3,5-trimethyl-1H-pyrazolo[4,3-d]pyrimidin-7-yl)-4,5,6,7-tetrahydro-1H-pyrazolo[4,3-c]pyridin-1-yl)methyl)bicyclo[2.2.2]octan-1-yl)morpholine-2-carboxamide]",4.97
14,"Cc1nn(CC23CCC(NC4CCC4)(CC2)CC3)c2c1CN(c1ccnc(-c3ccccc3)c1)CC2 [compound 144, N-cyclobutyl-4-((3-methyl-5-(2-phenylpyridin-4-yl)-4,5,6,7-tetrahydro-1H-pyrazolo[4,3-c]pyridin-1-yl)methyl)bicyclo[2.2.2]octan-1-amine]",0.139
15,"Cc1nn(CC23CCC(N)(CC2)CC3)c2c1CN(c1nc(N)nc3c1cnn3C)CC2 [compound 13, 4-(1-((4-aminobicyclo[2.2.2]octan-1-yl)methyl)-3-methyl-6,7-dihydro-1H-pyrazolo[4,3-c]pyridin-5(4H)-yl)-1-methyl-1H-pyrazolo[3,4-d]pyrimidin-6-amine]",7.75
